# Reference: patent US20220202725A1, “Modified or Targeted Release Formulations of Linaclotide” (Ironwood Pharmaceuticals, Inc., priority 2015, published 2022)
# Where no end group is shown, it is not given here.
# What was measured:
# [1] = human volunteers; cited from earlier work
# [2] = system: bladder afferents of CVH mice; test: Ex-vivo afferent recordings from bladder pelvic afferents during ramp distension; type: in vivo, C57/BL6 mice; settings: vs vehicle
# Method: (§1) Male C57 BL/6 mice were used in all experiments. Colitis was induced by administration of TNBS as described previously (Brierley et al., (2011) J. Physiol, 15: 3575-3593, incorporated herein by reference in its entirety). Briefly, 13-week-old mice were administered an intra-colonic enema of 0.1 mL TNBS (130 μg/mL in 30% EtOH) via a polyethylene catheter inserted 3 cm from the anus of isoflurane anaesthetized mice. Mice were then individually housed and observed daily for changes in body weight, physical appearance and behavior. Histological examination of mucosal architecture, cellular infiltrate, crypt abscesses, and goblet cell depletion confirmed TNBS-induced significant damage by day 3-post treatment, largely recovered by day 7 and fully recovered at the day 28-time point (Brierley et al., (2008) Gastroenterology, 134: 2059-69, incorporated herein by reference). High-threshold nociceptors from mice at the 28 day time point display significant mechanical hypersensitivity, lower mechanical activation thresholds and display hyperalgesia and allodynia. As such, they are therefore termed ‘chronic visceral hypersensitivity’ (CVH) mice.
# Pelvic bladder afferents are classified by their ability to respond to urinary bladder ramp distension. During bladder distension there is an increase in intravesical pressure and a corresponding increase in the afferent neuron activity. The mechanosensitivity of these afferents was tested in bladder preparations from healthy and CVH mice as well as CVH mice that received either a 2 week treatment of once daily oral gavage of vehicle or of linaclotide (3 μg/kg/day) by ramp distension to a final intravesical pressure of 30 mmHg.
# Recordings were made from healthy and CVH mice, which had been chronically administered either vehicle or linaclotide (3 μg/kg/day) for a total duration to 2 weeks, and which were euthanized via CO2 inhalation and cervical dislocation. The animal was cut in two at the level of L2, removing vascular connections via the aorta and vena cava, yet ensuring the kidneys and ureters remained intact. […]
# [3] = system: bladder afferents and detrusor smooth muscle of CVH mice; test: Exogenous chemical stimulation of bladder afferents and bladder muscle (carbachol, αβMe-ATP, capsaicin); type: in vivo, C57/BL6 mice; settings: vs vehicle
# Method: as §1
# The chemosensitivity of bladder afferents was also tested following isolation of pelvic afferents and catheterisation of the bladder described above. Following an equilibration period, when bladder afferent responses to ramp distension are stable, the bladder was distended to a physiological pressure of 6 mmHg above baseline. At this point, the saline perfusion is stopped but the outflow tap remains closed as to maintain the volume in the bladder. The bladder is maintained in this state to accommodate the increase in volume for 45 minutes whilst the baseline intravesical pressure and afferent firing stabilize.
# Following the equilibration period, the bath perfusion is briefly turned off and a bolus dose of agonist is applied. Carbachol (1 μM), αβMe-ATP (30 μM), and capsaicin (10 μM) were applied in series with a 1 hr washout period between each dose.
# Chemosensitive responses were measured as the number of action potentials crossing a pre-set threshold at a given time following agonist administration. The intravesical pressure was determined as the change from baseline pressure at a given time following agonist administration.
# Data are expressed as mean with the SEM, and n is the number of animals. Data were analyzed using unpaired t-test to determine significance when comparing single points or a two-way analysis of variance (ANOVA) when comparing between experimental groups throughout a ramp distension or exogenous agonist protocol. Differences were considered significant at P<0.05. […] Muscle compliance is calculated by plotting intravesical pressure against intravesical volume, which is in turn determined from the time taken to distend to a particular pressure.
# Whole nerve multifiber afferent nerve activity was quantified using the spike 2 software, which counted the number of action potentials crossing a pre-set threshold. Data are expressed as mean±SEM. n indicates the number of individual animals. Data were analyzed using Prism 5 software (GraphPad Software, San Diego, Calif., USA) where appropriate, un-paired t-tests were used, or two-way analysis of variance (ANOVA) followed by posthoc tests. Differences were considered significant at a level of *P<0.05, **P<0.01 and ***P<0.001.
# [4] = system: retrogradely traced bladder thoracolumbar (TL) DRG neurons; test: Patch clamp recordings from retrogradely traced bladder DRG neurons; type: in vivo, C57/BL6 mice; settings: TL DRG neurons from CVH mice, once daily oral gavage for 2 weeks, vs vehicle
# Method: Laparotomy was performed on anaesthetized (2-3% isofluorane/0.3 L/min O2) mice. […]; ThermoFisher product nr. C22842 (former LifeTechnologies)) was used for subserosal injection (2-3 ul per injection) in descending colon or dorsal and lateral bladder using a 30G Hamilton needle. Incision was closed with Prolene 6/0 suture (Johnson&Johnson product nr. 8636G). All mice were given 100 ul of buprenorphine (1:12) and Baytril (1:20) for post-operative care and left for 4 days before humanely killed for DRG cell culture.
# Recordings were made from healthy and CVH mice. CVH mice received chronic administration of either vehicle or linaclotide (3 μg/kg/day) for a total duration of 2 weeks. Mice were euthanized via CO2 inhalation and DRGs from thoracolumbar (T10-L1) and lumbosacral (L6-S1) regions removed and digested with 3 mg mL−1 collagenase II (Gibco) and 4 mg mL−1 dispase (Gibco) for 30 min at 37° C., followed by 3 mg mL−1 collagenase II only for 10 min at 37° C. […]
# Recordings were made similarly to those we have described previously (Brierley et al., 2011, ibid). […] Signals were amplified by using an Axopatch 200A amplifier, digitized with a Digidata 1322A and recorded using pCLAMP 9 software (Molecular Devices, Sunnyvale, Calif., USA). […] In current clamp studies a series of depolarizing pulses (500 ms, 10 pA step) were applied from a holding potential ([…]) and the rheobase (or amount of current (pA) required for action potential generation) determined. The number of action potentials at rheobase and 2× rheobase was also determined and the resting membrane potential was noted. […]
# Action potentials were recorded in current clamp mode and the rheobase, or the amount of injected current (pA) required to elicit an action potential determined. The numbers of action potentials at rheobase and 2× rheobase were also recorded as well as noting the resting membrane potential. Data were analyzed using Prism 5 software (GraphPad Software, San Diego, Calif., USA) where appropriate, un-paired t-tests or one-way analysis of variance (ANOVA) followed by posthoc tests. […]
sequence,measurement,setting,value
CCEYCCNPACTGCY (cysteine pairing not given here) [linaclotide],oral dose found in feces,[1],about 5%
same,afferent nerve activity over the time course of ramp distension,"[2]; once daily oral gavage 3 μg/kg/day for 2 weeks, FIG. 2A, P≤0.001",significant decrease
same,peak afferent response to distension,"[2]; once daily oral gavage 3 μg/kg/day for 2 weeks, FIG. 2B, P≤0.05",significant decrease
same,bladder compliance,"[2]; once daily oral gavage for 2 weeks, FIG. 2C",no change
same,bladder afferent response to capsaicin,"[3]; capsaicin 10 μM, once daily oral gavage for 2 weeks, p≤0.01",significantly reduced
same,bladder contraction response to carbachol,"[3]; carbachol 1 μM, once daily dosing for 2 weeks",significantly reduced
same,bladder afferent response to carbachol,"[3]; carbachol 1 μM, once daily oral gavage for 2 weeks, p≤0.001",significantly reduced
same,bladder contraction response to αβMe-ATP,"[3]; αβMe-ATP 30 μM, once daily dosing for 2 weeks",significantly reduced
same,bladder afferent response to αβMe-ATP,"[3]; αβMe-ATP 30 μM, once daily oral gavage for 2 weeks, p≤0.001",significantly reduced
same,resting membrane potential,[4],no effect
same,number of action potentials at 2× rheobase,[4]; p=0.02,significantly decreases
same,rheobase,[4]; p=0.02,significantly increases
